In ChEMBL document CHEMBL1158905, “Two New Bioactive Cyclic Peroxides from the Marine Sponge Plakortis angulospiculatus” (J Nat Prod, 1990):
≈ marks a conversion by molar mass, not a printed value. Calls of active or inactive are those of the source. The rule behind the calls is not given here.

What was measured:
Escherichia coli = assay: Antimicrobial activity against Escherichia coli by at 20 ug/disk by disk diffusion method; assay type: functional, organism-based
Aspergillus nidulans = assay: Antimicrobial activity against Aspergillus nidulans by at 20 ug/disk by disk diffusion method; assay type: functional, organism-based
P388 = assay: Cytotoxicity against mouse P388 cells; assay type: functional, cell-based
Candida albicans = assay: Antimicrobial activity against Candida albicans ATCC 44506 by broth microdilution method; assay type: functional
Bacillus subtilis = assay: Antimicrobial activity against Bacillus subtilis by at 20 ug/disk by disk diffusion method; assay type: functional, organism-based

SMILES	Activity (Escherichia coli)	Activity (Aspergillus nidulans)	IC50 (P388) [µg/mL]	MIC (Candida albicans) [µg/mL]	Activity (Bacillus subtilis)
CC/C=C/C(CC)CC(C)CC1(CC)C=C(CC)C(CC(=O)OC)OO1 (stereo not given)	inactive	inactive	0.9 (≈ 2.46 µM)	> 50	inactive
CCCCC(CC)CC(C)CC1(CC)C=C(CC)C(CC(=O)O)OO1 (stereo not given)	inactive	Active	0.2 (≈ 0.564 µM)	1.6 (≈ 4.51 µM)	Active
CCCCC(CC)CC(C)CC1(CC)C=C(CC)C(CC(=O)OC)OO1 (stereo not given)	inactive	inactive	0.2 (≈ 0.543 µM)	> 50	inactive
CC/C=C/C(CC)CC(C)CC1(CC)C=C(CC)C(CC(=O)O)OO1 (stereo not given)	inactive	Active	0.3 (≈ 0.851 µM)	1.6 (≈ 4.54 µM)	Active
